From US9682995B2, “Amino-substituted isothiazoles” (BAYER PHARMA AKTIENGESELLSCHAFT, priority 2013, dated 2017)
pIC50: −log10 of the molar value.

Legend:
[1] = system: spindle assembly checkpoint; test: SAC-Formation - Nocodazole-Induced Assay; assay type: cell-based; details: Homo sapiens; HeLa cells, nocodazole 0.1 μg/ml, 24 h, phosphorylated histone H3 on serine 10
Excerpt: The spindle assembly checkpoint assures the proper segregation of chromosomes during mitosis. Upon entry into mitosis, chromosomes begin to condensate which is accompanied by the phosphorylation of histone H3 on serine 10. Dephosphorylation of histone H3 on serine 10 begins in anaphase and ends at early telophase. Accordingly, phosphorylation of histone H3 on serine 10 can be utilized as a marker of cells in mitosis. Nocodazole is a microtubule destabilizing substance. Paclitaxel is a microtubule stabilizing compound. Thus, nocodazole as well as paclitaxel interfere with microtubule dynamics and mobilize the spindle assembly checkpoint. […] The mitotic breakthrough can be detected by the decrease of cells with phosphorylation of histone H3 on serine 10. This decline is used as a marker to determine the capability of compounds of the present invention to induce a mitotic breakthrough. The typical morphological alteration of nuclei with a prematurely completed mitosis after SAC-inhibition can be monitored via image analysis routines supporting those findings.
The nocodazole and paclitaxel variations were used to focus on compounds that are capable of inhibiting a SAC induced by both microtubule destabilization as well as microtubule stabilization. When SAC inducing agents and compounds are given simultaneously, inhibitors that effectively block the SAC during formation or abrogation are identified. When cells are incubated with a SAC inducing agent and the SAC interfering compound is given after a defined time, inhibitors are identified that effectively block SAC abrogation.
Cultivated cells of the human cervical tumor cell line HeLa (ATCC CCL-2) were plated at a density of 1000 cells/well in a 1536-well microtiter plate in 2 μl PAA Ham's F12 Medium supplemented with 1% (v/v) glutamine, 1% (v/v) penicillin, 1% (v/v) streptomycin and 10% (v/v) fetal calf serum. After incubation overnight at 37° C., 10 μl/well nocodazole at a final concentration of 0.1 μg/ml were added to cells. Test compounds solubilized in dimethyl sulfoxide (DMSO) were added at various concentrations (0 μM, as well as in the range of 0.005 μM-20 μM; the final concentration of the solvent DMSO was 0.5% (v/v)). Cells were incubated for 24 h at 37° C. in the presence of test compounds in combination with nocodazole. Thereafter, cells were fixed in 4% (v/v) paraformaldehyde in phosphate buffered saline (PBS) at 4° C. overnight then permeabilized in 0.1% (v/v) Triton X™ 100 in PBS at room temperature for 20 min and blocked in 0.5% (v/v) bovine serum albumin (BSA) in PBS at room temperature for 15 min. After washing with PBS, 5 μl/well antibody solution (anti-phospho-histone H3 clone 3H10, FITC; Millipore, Cat #16-222; 1:1000 dilution) was added to cells, which were incubated for 2 h at room temperature. Afterwards, cells were washed with PBS and 5 μl/well solution of HOECHST 33342 dye (5 μg/ml) was added to cells and cells were incubated 15 min at room temperature in the dark. Cells were washed twice with PBS then covered with PBS and stored at 4° C. until analysis. Images were acquired with a PERKIN ELMER OPERA™ High-Content Analysis reader. Images were analyzed with image analysis software MetaXpress™ from Molecular devices utilizing the Mitotic Index application module. In this assay both labels HOECHST 33342 and phosphorylated Histone H3 on serine 10 were measured. HOECHST 33342 labels the DNA and is used to count the cell number. The staining of phosphorylated Histone H3 on serine 10 determines the number of mitotic cells. […] Otherwise cells were arrested at G2/M phase of the cell cycle progression. The raw assay data were further analyzed by four-parametric hill equation using Genedata's Assay Analyzer and Condoseo software.

HeLa = test: Proliferation assay (crystal violet), HeLa; assay type: cell-based; details: Homo sapiens, 96 h, 4 days, read-out: Inhibition of proliferation IC50 HeLa
Procedure: Cultivated tumor cells (cells were ordered from ATCC, except HeLa-MaTu and HeLa-MaTu-ADR, which were ordered from EPO-GmbH, Berlin) were plated at a density of 1000 to 5000 cells/well, depending on the growth rate of the respective cell line, in a 96-well multititer plate in 200 μL of their respective growth medium supplemented 10% fetal calf serum. After 24 hours, the cells of one plate (zero-point plate) were stained with crystal violet (see below), while the medium of the other plates was replaced by fresh culture medium (200 μl), to which the test substances were added in various concentrations (0 μM, as well as in the range of 0.001-10 μM; the final concentration of the solvent dimethyl sulfoxide was 0.5%). The cells were incubated for 4 days in the presence of test substances. Cell proliferation was determined by staining the cells with crystal violet: the cells were fixed by adding 20 μl/measuring point of an 11% glutaric aldehyde solution for 15 minutes at room temperature. After three washing cycles of the fixed cells with water, the plates were dried at room temperature. The cells were stained by adding 100 μl/measuring point of a 0.1% crystal violet solution (pH 3.0). After three washing cycles of the stained cells with water, the plates were dried at room temperature. The dye was dissolved by adding 100 μl/measuring point of a 10% acetic acid solution. Absorption was determined by photometry at a wavelength of 595 nm. The change of cell number, in percent, was calculated by normalization of the measured values to the absorption values of the zero-point plate (=0%) and the absorption of the untreated (0 μm) cells (=100%). The IC50 values were determined by means of a 4 parameter fit.

Row | SMILES | pIC50 [1] | pIC50 (HeLa)
1 | CCc1ccccc1NC(=O)c1c(C)nsc1Nc1nc(C)nc2sccc12 [Example 38, N-(2-Ethylphenyl)-3-methyl-5-[(2-methylthieno[2,3-d]pyrimidin-4-yl)amino]-1,2-thiazole-4-carboxamide] | 6.16 | 5.28
2 | CCc1ccccc1NC(=O)c1c(C)nsc1Nc1cnc2cccc(C)c2n1 [Example 33, N-(2-Ethylphenyl)-3-methyl-5-[(8-methylquinoxalin-2-yl)amino]-1,2-thiazole-4-carboxamide] | 6.70 | 5.66
3 | CCc1ccccc1NC(=O)c1c(C)nsc1Nc1cnc2cc(F)ccc2n1 [Example 20, N-(2-Ethylphenyl)-5-[(6-fluoroquinoxalin-2-yl)amino]-3-methyl-1,2-thiazole-4-carboxamide] | 6.47 | 5.96
4 | CCOC(=O)c1sc(Nc2snc(C)c2C(=O)Nc2ccccc2CC)nc1C [Example 26, Ethyl 2-({4-[(2-ethylphenyl)carbamoyl]-3-methyl-1,2-thiazol-5-yl}amino)-4-methyl-1,3-thiazole-5-carboxylate] | 6.85 | 5.36
5 | CCOC(=O)c1cnn2ccc(Nc3snc(C)c3C(=O)Nc3ccc(F)c(F)c3)nc12 [Example 55, Ethyl 5-({4-[(3,4-difluorophenyl)carbamoyl]-3-methyl-1,2-thiazol-5-yl}amino)-pyrazolo[1,5-a]pyrimidine-3-carboxylate] | 6.66 | 6.04
6 | CCOC(=O)c1cnc(Nc2snc(C)c2C(=O)Nc2ccc(F)c(F)c2)o1 [Example 96, Ethyl 2-({4-[(3,4-difluorophenyl)carbamoyl]-3-methyl-1,2-thiazol-5-yl}amino)-1,3-oxazole-5-carboxylate] | 5.92 | 5.00
7 | CCc1ccccc1NC(=O)c1c(C)nsc1Nc1nc2ccccc2o1 [Example 11, 5-(1,3-Benzoxazol-2-ylamino)-N-(2-ethylphenyl)-3-methyl-1,2-thiazole-4-carboxamide] | 5.74 | 5.43
8 | Cc1nsc(Nc2nc3c(C(F)(F)F)cccc3s2)c1C(=O)Nc1ccc(Cl)c(Cl)c1 [Example 102, N-(3,4-Dichlorophenyl)-3-methyl-5-{[4-(trifluoromethyl)-1,3-benzothiazol-2-yl]amino}-1,2-thiazole-4-carboxamide] | 6.66 | 5.14
9 | CCc1ccccc1NC(=O)c1c(C)nsc1Nc1nc2ccccc2nc1C [Example 21, N-(2-Ethylphenyl)-3-methyl-5-[(3-methylquinoxalin-2-yl)amino]-1,2-thiazole-4-carboxamide] | 6.55 | < 5.00
10 | Cc1nsc(Nc2cncc(C(=O)N(C)C)n2)c1C(=O)Nc1ccc(F)c(F)c1 [Example 104, 6-({4-[(3,4-Difluorophenyl)-carbamoyl]-3-methyl-1,2-thiazol-5-yl}amino)-N,N-dimethyl-pyrazine-2-carboxamide] | 6.28 | 5.00
11 | CCc1ccccc1NC(=O)c1c(C)nsc1Nc1nc2ccccc2s1 [Example 14, 5-(1,3-Benzothiazol-2-ylamino)-N-(2-ethylphenyl)-3-methyl-1,2-thiazole-4-carboxamide] | 6.46 | 6.00

Now from value to compound:

Row | pIC50 [1] | pIC50 (HeLa) | SMILES
12 | 5.66 | < 5.00 | COc1ccc(NC(=O)c2c(C)nsc2Nc2cc(C#N)ccn2)cn1 [Example 25, 5-[(4-Cyanopyridin-2-yl)amino]-N-(6-methoxypyridin-3-yl)-3-methyl-1,2-thiazole-4-carboxamide]
13 | 5.62 | < 5.00 | COc1ccc(NC(=O)c2c(C)nsc2Nc2cccc(C#N)n2)cn1 [Example 37, 5-[(6-Cyanopyridin-2-yl)amino]-N-(6-methoxypyridin-3-yl)-3-methyl-1,2-thiazole-4-carboxamide]
14 | 7.35 | 6.25 | Cc1nsc(Nc2cnc3ccccc3n2)c1C(=O)Nc1ccc(Cl)c(F)c1 [Example 40, N-(4-Chloro-3-fluorophenyl)-3-methyl-5-(quinoxalin-2-ylamino)-1,2-thiazole-4-carboxamide]
15 | 5.74 | 5.00 | CNC(=O)c1ccnc(Nc2snc(C)c2C(=O)Nc2ccc(F)c(F)c2)c1 [Example 108, 2-({4-[(3,4-Difluorophenyl)-carbamoyl]-3-methyl-1,2-thiazol-5-yl}amino)-N-methyliso-nicotinamide]
16 | 5.26 | < 5.00 | COC(=O)c1ccc(Nc2snc(C)c2C(=O)Nc2ccc(OC)nc2)nc1 [Example 31, Methyl 6-({4-[(6-methoxypyridin-3-yl)carbamoyl]-3-methyl-1,2-thiazol-5-yl}amino)-nicotinate]
17 | 6.19 | 5.82 | Cc1nsc(Nc2ccc(C#N)cn2)c1C(=O)Nc1ccc(OC(C)C)nc1 [Example 110, 5-[(5-Cyanopyridin-2-yl)amino]-N-(6-isopropoxyridin-3-yl)-3-methyl-1,2-thiazole-4-carboxamide]
18 | 5.80 | 5.00 | COc1ccc(NC(=O)c2c(C)nsc2Nc2ncccc2C#N)cn1 [Example 36, 5-[(3-Cyanopyridin-2-yl)amino]-N-(6-methoxypyridin-3-yl)-3-methyl-1,2-thiazole-4-carboxamide]
19 | 5.26 | 5.00 | CCOC(=O)c1coc(Nc2snc(C)c2C(=O)Nc2ccc(OC)nc2)n1 [Example 100, Ethyl 2-({4-[(6-methoxypyridin-3-yl)carbamoyl]-3 methyl-1,2-thiazol-5-yl}amino)-1,3-oxazole-4-carboxylate]
20 | 7.04 | 5.80 | CCOC(=O)c1sc(Nc2snc(C)c2C(=O)Nc2ccc(OC)nc2)nc1C [Example 30, Ethyl 2-({4-[(6-methoxypyridin-3-yl)carbamoyl]-3-methyl-1,2-thiazol-5-yl}amino)-4-methyl-1,3-thiazole-5-carboxylate]
21 | 6.17 | 5.49 | CCc1ccccc1NC(=O)c1c(C)nsc1Nc1ccnc(C#N)n1 [Example 6, 5-[(2-Cyanopyrimidin-4-yl)amino]-N-(2-ethylphenyl)-3-methyl-1,2-thiazole-4-carboxamide]
22 | 7.05 | 5.89 | Cc1nsc(Nc2cnc3ccccc3n2)c1C(=O)Nc1ccc(OC2CCCCC2)nc1 [Example 115, N-[6-(Cyclohexyloxy)pyridin-3-yl]-3-methyl-5-(quinoxalin-2-ylamino)-1,2-thiazole-4-carboxamide]
23 | 7.06 | 5.48 | CCOc1ccc(NC(=O)c2c(C)nsc2Nc2cnc3ccccc3n2)cn1 [Example 119, N-(6-Ethoxypyridin-3-yl)-3-methyl-5-(quinoxalin-2-ylamino)-1,2-thiazole-4-carboxamide]
